Test [1] concerns cetuximab. Set-up: method as in Bzymek, Ma et al. (2016). The note with it: SPR, 25°C, pH 7.4; ref Bzymek, Ma et al. (2016); cited from earlier work. (In SPR one partner is held on a chip, and binding of the other changes the refractive index at the surface.)
In test [2] the test system is cetuximab. Briefly: Surface plasmon resonance (Biacore T100) binding kinetics of meditope variants to immobilised cetuximab IgG. The note with it: 25°C; for k a / k d: pH 7.4, HBS-EP+. How it is done: All surface plasmon resonance (SPR) experiments were performed on a GE Biacore T100 instrument (GE Healthcare) at 25°C as described previously (Bzymek, Avery et al., 2016[▸]; Bzymek, Ma et al., 2016[▸]). Briefly, cetuximab IgG ligand was amine-coupled to CM5 chips using acetate buffer pH 5.5 at a density of 5000 RU. Analytes were prepared in GE buffer HBS-EP+ [10 mM HEPES pH 7.4, 150 mM NaCl, 3 mM EDTA, 0.05%(v/v) surfactant P20]. Kinetics experiments were carried out at a flow rate of 30 µl min^−1 using HBS-EP+ as both the running and regeneration buffer. Experimental data were processed using Biacore T100 Evaluation software v.2.0.1. Purified peptides were dissolved in water and extensively dialyzed to remove any residual TFA, and their concentration was determined as described previously (Bzymek, Ma et al., 2016[▸]).

Test [3] has as its system cetuximab. Described as above. As to conditions: SPR, 25°C, at pH 5.5.

Like-named read-outs stand apart in the source and are kept apart here.

As to CQFDLSTRRLKC, the k a in test [1] is listed as 8.8 M^−1 s^−1 × 10^4.

Take `CC(C)C[C@@H]1NC(=O)[C@H](CCCNC(=N)N)NC(=O)[C@H](CCCNC(=N)N)NC(=O)[C@H]([C@@H](C)O)NC(=O)[C@H](CO)NC(=O)[C@H](CC(C)C)NC(=O)[C@H](CC(=O)O)NC(=O)[C@H](Cc2ccccc2)NC(=O)[C@H](CCC(N)=O)NC(=O)CCCCCCNC(=O)[C@H](CCCCN)NC1=O` [reference compound]: the “k a (on-rate)” value in test [2] (SPR, pH 7.4) came out at 25000 M⁻¹ s⁻¹. In addition, in test [2] (SPR), the k a is 2.5 M^−1 s^−1 × 10^4 and the k d stood at 0.046 s⁻¹. Besides, in test [3], the k a came to 2.0 M^−1 s^−1 × 10^4 and the k d came out at 0.075 s⁻¹.

`CCCCCCCCNC(=N)NCCC[C@@H]1NC(=O)[C@H]([C@@H](C)O)NC(=O)[C@H](CO)NC(=O)[C@H](CC(C)C)NC(=O)[C@H](CC(=O)O)NC(=O)[C@H](Cc2ccccc2)NC(=O)[C@H](CCC(N)=O)NC(=O)CCCCCCNC(=O)[C@H](CCCCN)NC(=O)[C@H](CC(C)C)NC(=O)[C@H](CCCNC(=N)N)NC1=O` [(AHA)QFDLSTR(nOc)RLK, aminoheptanoic acid-linked n-octylarginine meditope variant]: in test [2] (SPR), the k a is 0.93 M^−1 s^−1 × 10^4 and the k d was found to be 0.079 s⁻¹. Further, the “change of half-life of the complex versus nonmodified AHA-cyclized meditope (in words)” value in test [2] (t = ln(2)/k d, HBS-EP+ pH 7.4) is on record as “slightly reduced”.

Regarding `CCCCNC(=N)NCCC[C@@H]1NC(=O)[C@H]([C@@H](C)O)NC(=O)[C@H](CO)NC(=O)[C@H](CC(C)C)NC(=O)[C@H](CC(=O)O)NC(=O)[C@H](Cc2ccccc2)NC(=O)[C@H](CCC(N)=O)NC(=O)CCCCCCNC(=O)[C@H](CCCCN)NC(=O)[C@H](CC(C)C)NC(=O)[C@H](CCCNC(=N)N)NC1=O` [(AHA)QFDLSTR(nBu)RLK, aminoheptanoic acid-linked n-butylarginine meditope variant], in test [2] (SPR), the k a is reported as 2.2 M^−1 s^−1 × 10^4 and the k d worked out at 0.060 s⁻¹. Also, the “change of half-life of the complex versus nonmodified AHA-cyclized meditope (in words)” value in test [2] (t = ln(2)/k d, HBS-EP+ pH 7.4) is given as “slightly reduced”.

In test [2] (SPR), `CC(C)C[C@@H]1NC(=O)[C@H](CCCNC(=N)N)NC(=O)[C@H](CCCNC(=N)NCCCO)NC(=O)[C@H]([C@@H](C)O)NC(=O)[C@H](CO)NC(=O)[C@H](CC(C)C)NC(=O)[C@H](CC(=O)O)NC(=O)[C@H](Cc2ccccc2)NC(=O)[C@H](CCC(N)=O)NC(=O)CCCCCCNC(=O)[C@H](CCCCN)NC1=O` [(AHA)QFDLSTR(PrOH)RLK, aminoheptanoic acid-linked N-(3-hydroxypropyl)-L-arginine meditope variant] came in with a k a of 1.2 M^−1 s^−1 × 10^4 and a k d of 0.027 s⁻¹. Further, the “increase in the half-life of the complex over the nonmodified AHA-cyclized meditope” value in test [2] (t = ln(2)/k d, HBS-EP+ pH 7.4) is recorded as 1.7 fold.

What is called Kd is the constant that tells how readily two partners part at equilibrium. Lower therefore signals tighter binding. With `CC(C)C[C@@H]1NC(=O)[C@H](CCCNC(=N)N)NC(=O)[C@H](CCCNC(=N)NCCC(=O)O)NC(=O)[C@H]([C@@H](C)O)NC(=O)[C@H](CO)NC(=O)[C@H](CC(C)C)NC(=O)[C@H](CC(=O)O)NC(=O)[C@H](Cc2ccccc2)NC(=O)[C@H](CCC(N)=O)NC(=O)CCCCCCNC(=O)[C@H](CCCCN)NC1=O` [(AHA)QFDLSTR(EtCOOH)RLK, aminoheptanoic acid-linked N-carboxyethylarginine meditope variant], in test [3], the affinity, expressed as Kd, was 32 µM; the k a was 0.06 M^−1 s^−1 × 10^4; the k d was 0.020 s⁻¹.

`CC(C)C[C@@H]1NC(=O)[C@H](CCCNC(=N)N)NC(=O)[C@H](CCCNC(=N)NCCCN)NC(=O)[C@H]([C@@H](C)O)NC(=O)[C@H](CO)NC(=O)[C@H](CC(C)C)NC(=O)[C@H](CC(=O)O)NC(=O)[C@H](Cc2ccccc2)NC(=O)[C@H](CCC(N)=O)NC(=O)CCCCCCNC(=O)[C@H](CCCCN)NC1=O` [(AHA)QFDLSTR(PrNH2)RLK, aminoheptanoic acid-linked N-(3-aminopropyl)-L-arginine meditope variant]: in test [2] (SPR), the k a is 1.2 M^−1 s^−1 × 10^4 and the k d amounted to 0.110 s⁻¹.

(Values after PMC5713674, “Meditope–Fab interaction: threading the hole” (Acta Crystallographica. Section F, Structural Biology …, 2017).)
